“And” between values parts separate entries of the source, which are not always exact repeats. Identical values can stand only once. Toxic doses and inconclusive results are not listed. Peptide text beside a SMILES is read from it. * marks the point of attachment. Butyryl = CCCC(=O)*; Bn = c1ccc(C*)cc1
Tested on: P388 leukemia ip, CD2F1 mice, survival T/C
Assay: NCI In Vivo Anticancer Drug Screen. Data for tumor model P388 Leukemia (intraperitoneal) in CD2F1 (CDF1) mice
Details: endpoint: median survival time, higher = longer survival
Summary of the method: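 Mice carrying the transplanted tumor received test compound or vehicle. Survival was recorded in each group, and the value is the treated-group measurement divided by that of the vehicle-treated control group.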

[1] = dose: 50.0 mg/kg/injection, schedule: Q01DX009 (ip), vehicle: Klucel (hydroxypropylcellulose) (HPC)
[2] = dose: 100.0 mg/kg/injection, schedule: Q01DX009 (ip), vehicle: Klucel (hydroxypropylcellulose) (HPC)
[3] = dose: 200.0 mg/kg/injection, schedule: Q01DX009 (ip), vehicle: Klucel (hydroxypropylcellulose) (HPC)
[4] = dose: 60.0 mg/kg/injection, schedule: Q01DX005 (ip), vehicle: saline with Tween-80
[5] = dose: 120.0 mg/kg/injection, schedule: Q01DX005 (ip), vehicle: saline with Tween-80
[6] = dose: 240.0 mg/kg/injection, schedule: Q01DX005 (ip), vehicle: saline with Tween-80
[7] = dose: 60.0 mg/kg/injection, schedule: Q01DX005 (ip), vehicle: Klucel (hydroxypropylcellulose) (HPC)
[8] = dose: 60.0 mg/kg/injection, schedule: Q01DX005 (ip), vehicle: saline
[9] = dose: 120.0 mg/kg/injection, schedule: Q01DX005 (ip), vehicle: saline
[10] = dose: 200.0 mg/kg/injection, schedule: Q01DX005 (ip), vehicle: Klucel (hydroxypropylcellulose) (HPC)
[11] = dose: 50.0 mg/kg/injection, schedule: Q01DX005 (ip), vehicle: saline with Tween-80
[12] = dose: 100.0 mg/kg/injection, schedule: Q01DX005 (ip), vehicle: saline with Tween-80
[13] = dose: 200.0 mg/kg/injection, schedule: Q01DX005 (ip), vehicle: saline with Tween-80
[14] = dose: 50.0 mg/kg/injection, schedule: Q01DX009 (ip), vehicle: saline with Tween-80
[15] = dose: 100.0 mg/kg/injection, schedule: Q01DX009 (ip), vehicle: saline with Tween-80

## NS(=O)(=O)c1ccc(N=NC2C(=O)N(c3ccc(Cl)cc3)C(=S)N(c3ccc(Cl)cc3)C2=O)cc1
dose: 12.5 mg/kg/injection, schedule: Q01DX005 (ip), vehicle: saline
  T/C: 100 % of control
dose: 25.0 mg/kg/injection, schedule: Q01DX005 (ip), vehicle: saline
  T/C: 100 % of control
dose: 50.0 mg/kg/injection, schedule: Q01DX005 (ip), vehicle: saline
  T/C: 108 % of control and 118 % of control

## CCC(C)C(=O)OC1CCC=C2C=CC(C)C(CCC3CC(O)CC(=O)O3)C21 (stereo not given)
dose: 15.0 mg/kg/injection, schedule: Q01DX009 (ip), vehicle: saline
  T/C: 107 % of control
dose: 30.0 mg/kg/injection, schedule: Q01DX009 (ip), vehicle: saline
  T/C: 100 % of control
dose: 60.0 mg/kg/injection, schedule: Q01DX009 (ip), vehicle: saline
  T/C: 100 % of control

## O=C1OC(=O)C2CCCC1C2
[1]
  T/C: 108 % of control
[2]
  T/C: 102 % of control
[3]
  T/C: 102 % of control

## Oc1ccc(C(c2cc3c(cc2O)OCO3)N2CCNCC2)cc1 (stereo not given)
[4]
  T/C: 114 % of control
[5]
  T/C: 115 % of control
[6]
  T/C: 113 % of control

## O=C1CN=C(c2ccccc2)N(c2ccccc2)N1
[7]
  T/C: 107 % of control
dose: 120.0 mg/kg/injection, schedule: Q01DX005 (ip), vehicle: Klucel (hydroxypropylcellulose) (HPC)
  T/C: 100 % of control
dose: 240.0 mg/kg/injection, schedule: Q01DX005 (ip), vehicle: Klucel (hydroxypropylcellulose) (HPC)
  T/C: 103 % of control

## CCOC(=O)Cc1ccc(-c2csc(Nc3ccccc3)n2)cc1
[1]
  T/C: 106 % of control
[2]
  T/C: 98 % of control
[3]
  T/C: 98 % of control

## Cc1csc(=S)n1O
[8]
  T/C: 101 % of control
[9]
  T/C: 100 % of control
dose: 240.0 mg/kg/injection, schedule: Q01DX005 (ip), vehicle: saline
  T/C: 101 % of control

## CNC(=S)N/N=C(C)/C=C/c1ccccc1
dose: 50.0 mg/kg/injection, schedule: Q01DX005 (ip), vehicle: Klucel (hydroxypropylcellulose) (HPC)
  T/C: 107 % of control
dose: 100.0 mg/kg/injection, schedule: Q01DX005 (ip), vehicle: Klucel (hydroxypropylcellulose) (HPC)
  T/C: 101 % of control
[10]
  T/C: 101 % of control

## C=Cc1cc(OC)c2c(c1)c(=O)oc1c2cc(OC)c2c(O)ccc(C3OC(C(C)O)C(O)C3O)c21 (stereo not given)
dose: 2.0 mg/kg/injection, schedule: Q04DX003 (ip), vehicle: DMSO
  T/C: 108 % of control
dose: 4.0 mg/kg/injection, schedule: Q04DX003 (ip), vehicle: DMSO
  T/C: 114 % of control
dose: 8.0 mg/kg/injection, schedule: Q04DX003 (ip), vehicle: DMSO
  T/C: 123 % of control
dose: 15.0 mg/kg/injection, schedule: Q01DX005 (ip), vehicle: Klucel (hydroxypropylcellulose) (HPC)
  T/C: 119 % of control
dose: 16.0 mg/kg/injection, schedule: Q04DX003 (ip), vehicle: DMSO
  T/C: 155 % of control
dose: 30.0 mg/kg/injection, schedule: Q01DX005 (ip), vehicle: Klucel (hydroxypropylcellulose) (HPC)
  T/C: 107 % of control
dose: 32.0 mg/kg/injection, schedule: Q04DX003 (ip), vehicle: DMSO
  T/C: 155 % of control
[7]
  T/C: 120 % of control
[10]
  T/C: 157 % of control
dose: 400.0 mg/kg/injection, schedule: Q01DX005 (ip), vehicle: Klucel (hydroxypropylcellulose) (HPC)
  T/C: 98 % of control

## CC1(C)Cc2cc3ccccc3nc2-c2ccccc21
[11]
  T/C: 107 % of control
[12]
  T/C: 102 % of control
[13]
  T/C: 107 % of control

## O=C1c2ccccc2C(=O)N1c1ccc(Cl)cc1[N+](=O)[O-]
dose: 100.0 mg/kg/injection, schedule: Q04DX002 (ip), vehicle: saline
  T/C: 99 % of control
dose: 200.0 mg/kg/injection, schedule: Q04DX002 (ip), vehicle: saline
  T/C: 99 % of control
dose: 400.0 mg/kg/injection, schedule: Q04DX002 (ip), vehicle: saline
  T/C: 97 % of control

## O=C(/C=C/c1cccc(Cl)c1)c1ccc(Cl)cc1
dose: 30.0 mg/kg/injection, schedule: Q01DX005 (ip), vehicle: saline with Tween-80
  T/C: 102 % of control
[4]
  T/C: 100 % of control
[5]
  T/C: 100 % of control
[6]
  T/C: 110 % of control

## O=C1c2ccccc2C(=O)N1N1C(=O)c2ccccc2C1=O
dose: 100.0 mg/kg/injection, schedule: Q04DX003 (ip), vehicle: saline with Tween-80
  T/C: 100 % of control
dose: 200.0 mg/kg/injection, schedule: Q04DX003 (ip), vehicle: saline with Tween-80
  T/C: 100 % of control
dose: 400.0 mg/kg/injection, schedule: Q04DX003 (ip), vehicle: saline with Tween-80
  T/C: 100 % of control

## CCN(CC)Cc1c(C)[nH]c2ccc(NC(C)=O)cc2c1=O
[14]
  T/C: 116 % of control
[15]
  T/C: 114 % of control

## CCCC(=O)NC(CSCc1ccccc1)C(=O)NC(CCC(=O)OC)C(=O)OC (stereo not given) (Butyryl-Cys(Bn)-Glu(OMe)-OMe; configuration not given here)
[14]
  T/C: 104 % of control
[15]
  T/C: 104 % of control
dose: 200.0 mg/kg/injection, schedule: Q01DX009 (ip), vehicle: saline with Tween-80
  T/C: 96 % of control

## O=P(NC1CCCC1)(N1CC1)N1CC1
dose: 2.0 mg/kg/injection, schedule: Q04DX003 (ip), vehicle: saline
  T/C: 110 % of control
dose: 2.66 mg/kg/injection, schedule: Q01DX009 (ip), vehicle: saline
  T/C: 154 % of control
dose: 4.0 mg/kg/injection, schedule: Q01DX009 (ip), vehicle: saline
  T/C: 209 % of control
dose: 4.0 mg/kg/injection, schedule: Q04DX003 (ip), vehicle: saline
  T/C: 120 % of control
dose: 6.0 mg/kg/injection, schedule: Q01DX009 (ip), vehicle: saline
  T/C: 118 % of control
dose: 8.0 mg/kg/injection, schedule: Q04DX003 (ip), vehicle: saline
  T/C: 200 % of control
dose: 9.0 mg/kg/injection, schedule: Q01DX009 (ip), vehicle: saline
  T/C: 100 % of control

## O=NNc1cccnc1
dose: 3.12 mg/kg/injection, schedule: Q01DX009 (ip), vehicle: water
  T/C: 108 % of control
dose: 6.25 mg/kg/injection, schedule: Q01DX009 (ip), vehicle: water
  T/C: 101 % of control and 105 % of control
dose: 12.5 mg/kg/injection, schedule: Q01DX009 (ip), vehicle: water
  T/C: 107 % of control and 110 % of control

## CC(=O)/C=C/N1CCOCC1
dose: 50.0 mg/kg/injection, schedule: Q01DX009 (ip), vehicle: saline
  T/C: 119 % of control
dose: 100.0 mg/kg/injection, schedule: Q01DX009 (ip), vehicle: saline
  T/C: 98 % of control
dose: 200.0 mg/kg/injection, schedule: Q01DX009 (ip), vehicle: saline
  T/C: 103 % of control

## CC(=O)c1cc[n+](Cc2cc3ccccc3nc2Br)cc1
dose: 12.5 mg/kg/injection, schedule: Q04DX002 (ip), vehicle: saline
  T/C: 101 % of control
dose: 25.0 mg/kg/injection, schedule: Q04DX002 (ip), vehicle: saline
  T/C: 102 % of control
dose: 50.0 mg/kg/injection, schedule: Q04DX002 (ip), vehicle: saline
  T/C: 101 % of control

## COc1ccccc1/C=C/C1=C(C)CCC(c2ccccc2OC)C1C (stereo not given)
[11]
  T/C: 90 % of control
[12]
  T/C: 89 % of control
[13]
  T/C: 89 % of control

## CCN(CC)c1ccc(NC(C(=O)c2ccccc2)c2ccccc2)cc1 (stereo not given)
dose: 3.12 mg/kg/injection, schedule: Q01DX005 (ip), vehicle: Klucel (hydroxypropylcellulose) (HPC)
  T/C: 104 % of control and 109 % of control
dose: 6.25 mg/kg/injection, schedule: Q01DX005 (ip), vehicle: Klucel (hydroxypropylcellulose) (HPC)
  T/C: 103 % of control and 109 % of control and 96 % of control
dose: 12.5 mg/kg/injection, schedule: Q01DX005 (ip), vehicle: Klucel (hydroxypropylcellulose) (HPC)
  T/C: 104 % of control and 121 % of control and 96 % of control
dose: 25.0 mg/kg/injection, schedule: Q01DX005 (ip), vehicle: Klucel (hydroxypropylcellulose) (HPC)
  T/C: 112 % of control and 95 % of control

## CCCCCSc1nc2ccc(NCN3C(=O)C4C5C=CC(C5)C4C3=O)cc2s1 (stereo not given)
[1]
  T/C: 98 % of control
[2]
  T/C: 86 % of control
[3]
  T/C: 92 % of control

## Cc1cc(CN2CCN(CCO)CC2)c(O)c(CN2CCN(CCO)CC2)c1
[8]
  T/C: 105 % of control
[9]
  T/C: 102 % of control

## O=c1oc2ccc3ccccc3c2cc1-n1nnc2ccccc21
[4]
  T/C: 91 % of control
[5]
  T/C: 90 % of control

## CC1=C/C(=C\C(=O)N2CCCCC2)N=C(N[N+](=O)[O-])N1
dose: 50.0 mg/kg/injection, schedule: Q01DX009 (ip), vehicle: distilled water + Tween-80 + alcohol
  T/C: 111 % of control
dose: 100.0 mg/kg/injection, schedule: Q01DX009 (ip), vehicle: distilled water + Tween-80 + alcohol
  T/C: 115 % of control
dose: 200.0 mg/kg/injection, schedule: Q01DX009 (ip), vehicle: distilled water + Tween-80 + alcohol
  T/C: 105 % of control
